Assays:
[1] = tested on: Sprague Dawley rats; assay: Example 9 benzoylecgonine intranasal toxicity, Single-Dose Phase; format: in vivo, rat
Method: Benzoylecgonine in the vehicle (deionized water) was administered by intranasal instillation once to a group (Group 2) of Sprague Dawley rats at a dose level of 8.8 mg/kg. […] The dose volume was 0.22 mL/kg, divided between the 2 nares, for both groups. Groups 1 and 2 each consisted of 20 animals/sex. Following dose administration, 9 to 10 animals/sex/group were euthanized on Study Day 1; the remaining 10 animals/sex/group were euthanized following a 14-day nondosing (recovery) period. Criteria for evaluation included daily mortality observations, daily clinical observations, detailed physical observations, body weights, food consumption, clinical pathology (hematology, coagulation, serum chemistry, and urinalysis), organ weights, gross pathology, and microscopic examination of select tissues.
(§1) Organization of Test Groups, Dosage Levels, and Treatment Regimen—The vehicle and test article formulations were administered by intranasal instillation into each naris via a syringe equipped with stainless steel-shafted, stainless steel ball-tipped dosing cannula once (Single-Dose Phase) or once daily for 14 consecutive days (Repeat-Dose Phase), through the day prior to the primary necropsy. The same syringe and dosing cannula was used to administer the dose across both nares for a given animal on a given dosing day. The total dose volume administered per dose was split approximately equally across each naris, such that approximately half of the total dose volume was administered into one naris, and the remaining was administered into the other naris. Treatment administration across each naris for an individual animal occurred at approximately the same time. The dose volume for all groups was 0.22 mL/kg. Individual doses were based on the most recently recorded body weights. Adjusted doses became effective the day of collection of the weekly body weights. The first day of dosing was Study Day 0; the first week of dosing was Study Week 0.
(§2) All animals were observed twice daily, once in the morning and once in the afternoon, for mortality and moribundity. Animals found dead were examined macroscopically as soon as possible to ensure that tissues were not lost due to autolysis.
(§3) Clinical examinations were performed at the time of dose administration and 1 to 2 hours following dose administration. During the recovery period, the animals were observed once daily. The absence or presence of findings was recorded for individual animals at the scheduled intervals. For the Single-Dose Phase, detailed physical examinations were conducted on all animals within 4 days of receipt, on the day of randomization, and on Study Days 0, 1 (for animals scheduled for necropsy), 7, and 14. For the Repeat-Dose Phase, detailed physical examinations were conducted on all animals within 4 days of receipt, on the day of randomization, weekly (t 2 days) during the study period, and on the day of the scheduled necropsies (see Appendix 1—Study Protocol and Deviations). Daily observations during the recovery period were not necessary on days when detailed physical examinations were conducted.
(§4) Individual body weights were recorded within 4 days of receipt, on the day of randomization, Study Day 0 (prior to dosing), weekly (±2 days) during the study period, and on the day prior to the scheduled necropsies (nonfasted). Mean body weights and mean body weight changes were calculated for the corresponding intervals. Final body weights (fasted) were recorded on the day of the scheduled necropsies.
(§5) Cage food weights were recorded once weekly (±2 days) beginning following randomization and throughout the study period. Food consumption was calculated as g/animal/day for the corresponding body weight intervals.
(§6) Blood and urine samples for clinical pathology evaluations (hematology, coagulation, serum chemistry, and urinalysis) were collected from all animals assigned to the scheduled necropsies. […]

[2] = tested on: Sprague Dawley rats; assay: Example 9 benzoylecgonine intranasal toxicity, Repeat-Dose Phase; format: in vivo, rat
Method: Benzoylecgonine in the vehicle was administered by intranasal instillation once daily for 14 days to a group (Group 2) of Sprague Dawley rats at a dosage level of 8.8 mg/kg/day. […] The dose volume was 0.22 mL/kg, divided between the 2 nares, for both groups. Groups 1 and 2 each consisted of 15 animals/sex. Following 14 days of dose administration, 10 animals/sex/group were euthanized; the remaining 5 animals/sex/group were euthanized following a 14-day nondosing (recovery) period. Criteria for evaluation included daily mortality observations, daily clinical observations, detailed physical observations, body weights, food consumption, clinical pathology (hematology, coagulation, serum chemistry, and urinalysis), organ weights, gross pathology, and microscopic examination of select tissues.
as §1, §2, §3, §4, §5, §6

[3] = 8.8 mg/kg once, intranasal instillation
[4] = 8.8 mg/kg/day for 14 days, intranasal instillation

CN1[C@H]2CC[C@@H]1[C@@H](C(=O)O)[C@@H](OC(=O)c1ccccc1)C2 [BE, benzoylecgonine]
body weights [1, 3]: unaffected | clinical observations [1, 3]: no test article-related clinical observations | food consumption [1, 3]: unaffected | hematology and coagulation parameters [1, 3]: unaffected | macroscopic examination at necropsy [1, 3]: No test article-related macroscopic findings | organ weights [1, 3]: No test article-related organ weight findings | serum chemistry parameters [1, 3]: unaffected | survival [1, 3]: no test article-related effects on survival | urinalysis parameters [1, 3]: unaffected | microscopic examination (nasal cavity with turbinates) ([1]; 8.8 mg/kg once, intranasal instillation, also after 14-day recovery): No test article-related microscopic findings | pH of the dosing formulation ([1]; Single-Dose Phase, 40 mg/mL in deionized water, pH meter): 6.32 | tolerability ([2]; 8.8 mg/kg once or once daily for 14 days, intranasal instillation): well tolerated | clinical observations [2, 4]: no test article-related clinical observations | food consumption [2, 4]: unaffected | hematology and coagulation parameters [2, 4]: unaffected | macroscopic examination at necropsy [2, 4]: No test article-related macroscopic findings | organ weights [2, 4]: No test article-related organ weight findings | serum chemistry parameters [2, 4]: unaffected | survival [2, 4]: All animals survived | urinalysis parameters [2, 4]: unaffected | microscopic examination (nasal cavity with turbinates) ([2]; 8.8 mg/kg/day for 14 days, intranasal instillation, also after 14-day recovery): No test article-related microscopic findings | body weights ([2]; 8.8 mg/kg/day for 14 days, intranasal instillation, dosing period): unaffected | pH of the dosing formulation ([2]; Repeat-Dose Phase, 40 mg/mL in deionized water, pH meter): 6.32 | no-observed-effect level (NOEL) ([2]; intranasal instillation once or once daily for 14 days): 8.8 mg/kg/day

Source: patent US10413505B1, “Pharmaceutical compositions and methods of using the same” (priority 2017, dated 2019)
